{"source": "patent EP4643869A1", "about": "“USE OF GNRH ANTAGONISTS SUCH AS TEVERELIX TO TREAT ACUTE URINARY RETENTION” (Antev Limited, priority 2024, dated 2025)", "key": {"[1]": {"system": "patients with a first episode of AUR related to BPH", "details": "alfuzosin 10 mg once daily; placebo 39.7%; cited from earlier work"}, "testosterone": {"system": "testosterone", "experiment": "PKPD of single-dose teverelix-TFA, subcutaneous or intramuscular", "type": "in vivo", "details": "single dose of 120 mg subcutaneous"}, "male and female subjects": {"system": "male and female subjects", "experiment": "Safety across 16 Phase 1 and Phase 2 clinical trials", "type": "in vivo", "details": "1,117 injections s.c. or i.m.; no SUSARs reported", "experimental": "Teverelix-TFA has been studied in 450 male and female subjects in 16 Phase 1 and Phase 2 clinical trials. Teverelix-TFA has been tested in various dosing regimens in Phase 2 clinical trials in 97 patients with BPH.\nAdministrations have ranged from a single dose of 0.125 mg up to 180 mg repeat doses of teverelix for three consecutive days."}, "[2]": {"system": "patients 50 years or over, with BPH and bothersome voiding symptoms", "experiment": "Investigator rating of efficacy and tolerability at final assessment (Experiment I)", "type": "in vivo, human", "experimental": "This was a multicentre (n=8), randomised, double-blind, placebo-controlled study in treatment of patients 50 years or over, with BPH and bothersome voiding symptoms characterized as an International Prostate Symptom Score (IPSS score ≥13) and a uroflow <13 mL/sec for a voided volume ≥150 mL. Exclusion criteria included an urgent need for prostate surgery, elevated prostate specific antigen (PSA) levels above the upper limit of normal relative to age, major organ dysfunction, prior surgical treatment of the prostate or bladder, and a large residual urine volume (>350 mL).\nThe study comprised two periods: a four-week single-blind placebo run-in period for all patients to remove any placebo responders and reduce between-patient variability in baseline measurements. This was followed by a 16-week randomised, double-blind, placebo-controlled, parallel group period for eligible patients. Following screening (Day-28), patients entered the placebo run-in period and received two subcutaneous injections of placebo, 48 h apart. During this period, one visit was planned for training purposes (e.g., IPSS). […]\nAt the final assessment, the investigator assessed efficacy and tolerability as either very good/good, satisfactory, poor/insufficient, or not assessable."}, "[3]": {"system": "patients 50 years or over, with BPH and bothersome voiding symptoms", "experiment": "Safety: adverse events (Experiment I)", "type": "in vivo, human", "experimental": "(§1) The study comprised two periods: a four-week single-blind placebo run-in period for all patients to remove any placebo responders and reduce between-patient variability in baseline measurements. This was followed by a 16-week randomised, double-blind, placebo-controlled, parallel group period for eligible patients. Following screening (Day-28), patients entered the placebo run-in period and received two subcutaneous injections of placebo, 48 h apart. During this period, one visit was planned for training purposes (e.g., IPSS). At the end of the placebo run-in period, patients still meeting the eligibility criteria were randomised to receive two subcutaneous injections of 60 mg teverelix or placebo, 48 h apart, on day 1 and day 3. Teverelix was supplied as a freeze-dried powder that was reconstituted with 5% mannitol in water for injection. Corresponding placebo formulations, without teverelix-TFA, were also prepared. Injections were given in the abdomen. Patients attended follow-up visits for up to 16 weeks.\nSafety included the assessment of adverse events (AEs), vital signs (supine blood pressure and pulse), electrocardiograms (ECG), and clinical laboratory parameters (haematology, clinical chemistry, and urinalysis). Drug-related AEs were defined as those with a relationship to study drug of `likely' or `not assessable'."}, "[4]": {"experiment": "Plasma concentrations of teverelix (Experiment I)", "type": "in vivo, human", "details": "60 mg s.c. on Day 1 and Day 3", "experimental": "as §1\nBlood samples were gathered in the morning on Day 1 and Day 3 prior to dosing, along with assessments at the conclusion of Weeks 1, 2, 3, 4, 8, 12, and the final evaluation at Week 16, for the measurement of teverelix, testosterone, and dihydrotestosterone (DHT). Plasma concentrations of teverelix were analysed to delineate the release profile of the active substance from teverelix."}}, "note": "Structures can show the parent of a compound that is named as a salt. Where a SMILES comes first, the peptide text is derived from it. [ ]: non-standard residue; d: D form. dPhe(4-Cl) = N[C@H](Cc1ccc(Cl)cc1)C(=O)O; d2Nal = N[C@H](Cc1ccc2ccccc2c1)C(=O)O; d(hCit) = NC(=O)NCCCC[C@@H](N)C(=O)O; Lys(iPr) = CC(C)NCCCC[C@H](N)C(=O)O; d3Pal = N[C@H](Cc1cccnc1)C(=O)O"}
{"smiles": "COc1cc2nc(N(C)CCCNC(=O)C3CCCO3)nc(N)c2cc1OC", "note": "(stereo not shown) [alfuzosin]", "values": [{"measurement": "success rate after 6 months (successful TWOC and no AUR relapse nor any need for surgery)", "setting": "[1]", "result": 43.5, "unit": "%"}]}
{"smiles": "CC(=O)N[C@H](Cc1ccc2ccccc2c1)C(=O)N[C@H](Cc1ccc(Cl)cc1)C(=O)N[C@H](Cc1cccnc1)C(=O)N[C@@H](CO)C(=O)N[C@@H](Cc1ccc(O)cc1)C(=O)N[C@H](CCCCNC(N)=O)C(=O)N[C@@H](CC(C)C)C(=O)N[C@@H](CCCCNC(C)C)C(=O)N1CCC[C@H]1C(=O)N[C@H](C)C(N)=O", "note": "[teverelix, N-Ac-d-Nal^1,d-pCl-Phe^2,d-Pal^3,d-(Hci)^6,Lys(iPr)^8,d-Ala^10 trifluoroacetate] (Ac-[d2Nal][dPhe(4-Cl)][d3Pal]SY[d(hCit)]L[Lys(iPr)]P[dA]-NH2)", "values": [{"measurement": "PKPD profile versus two subcutaneous injections of 60 mg two days apart", "setting": "testosterone", "result": "comparable"}, {"measurement": "overall safety and tolerability", "setting": "male and female subjects", "result": "safe and well-tolerated"}, {"measurement": "patients rated by the investigator as having very good/good tolerability", "setting": "[2]", "result": "all patients"}, {"measurement": "patients reporting an AE likely drug-related or not assessable", "setting": "[3]; 22 patients of 41", "result": 53.7, "unit": "%"}, {"measurement": "intensity of drug-related AEs", "setting": "[3]; in vivo", "result": "mild intensity"}, {"measurement": "patients with drug-related hyperuricaemia", "setting": "[3]; in vivo", "result": "one patient"}, {"measurement": "patients with drug-related urinary retention", "setting": "[3]; in vivo", "result": 1, "unit": "patient"}, {"measurement": "serious AEs, assessed as not drug related", "setting": "[3]; in vivo", "result": "cholelithiasis/pancreatitis"}, {"measurement": "injection site induration", "setting": "[3]; share of patients", "result": 17.1, "unit": "%"}, {"measurement": "pain (AE)", "setting": "[3]; share of patients", "result": 2.4, "unit": "%"}, {"measurement": "subcutaneous injection site reactions", "setting": "[3]; share of patients", "result": 31.7, "unit": "%"}, {"measurement": "time until which teverelix plasma concentrations kept rising", "setting": "[4]", "result": "until the end of Week 3"}]}
